Laboratory results from patent US20230181509A1, “THE USE OF DIFFUSION ENHANCING COMPOUNDS FOR TREATMENT OF VIRAL AND BACTERIAL INDUCED RESPIRATORY DISEASE” (DIFFUSION PHARMACEUTICALS LLC, priority 2020, published 2023).
Like-named read-outs stand apart in the source and are kept apart here.

Assays:
[1] = Solubility of TSC in water with gamma-cyclodextrin; type: physicochemical; conditions: TSC and gamma-cyclodextrin
[2] = Solubility of TSC formulated with cyclodextrin and mannitol; type: physicochemical; conditions: formulated with a cyclodextrin and mannitol
Text: A trans carotenoid such as TSC can be formulated with a cyclodextrin as noted above and a non-metabolized sugar such as mannitol (e.g. d-mannitol to adjust the osmotic pressure to be the same as that of blood). […] This solution can be added to isotonic saline or to other isotonic solutions in order to dilute it and still maintain the proper osmolality.

[3] = Absorption into the blood stream after intramuscular injection of TSC with gamma cyclodextrin; type: in vivo; conditions: injected intramuscularly, rats
Text: The solutions need not be equal-molar.

[4] = after hemorrhagic shock in rats; cited from earlier work
[5] = cited from earlier work
[6] = cited from earlier work; remark: listed apart in the source

| SMILES | TSC concentration reached in aqueous solution [1] | TSC concentration of solutions that can be made [2] | absorption into the blood stream [3] | whole-body oxygen consumption [4] | oxygen levels, arterial and tissue ([5]; hypoxemic states) | oxygen levels, arterial and tissue ([5]; normoxic states) | diffusivity of oxygen through plasma ([6]; plasma) | diffusivity of oxygen in water [6] |
| --- | --- | --- | --- | --- | --- | --- | --- | --- |
| CC(/C=C/C=C(\C)C(=O)[O-])=C\C=C\C=C(C)\C=C\C=C(/C)C(=O)[O-].[Na+].[Na+] [TSC, trans sodium crocetinate] | ≤ 44 milligrams of TSC per ml of solution | over 20 mg TSC/ml of solution | Absorption is quick | increase whole-body oxygen consumption | increases oxygen levels | does not | increases the diffusivity of oxygen through plasma | increase the diffusivity of oxygen in water |
| CC(/C=C/C=C(\C)C(=O)O)=C\C=C\C=C(C)\C=C\C=C(/C)C(=O)O [crocetin, reference compound] | – | – | – | – | – | – | – | increase the diffusivity of oxygen in water |
